Experimental data: patent US7115382B1, “Method for detecting IGFBP-4 protease without detecting IGFBP-4 protease/proMBP Complex” (Mayo Foundation for Medical Education and Research, priority 1999, dated 2006)

Test system: HEK 293 cells
Experiment: Flow cytometry of PAPP-A binding to the cell surface
Type: cell-based, human
Conditions: HEK 293 cells transfected with rPAPP-A cDNA, mAb 234-2 detection
Protocol: Flow cytometry was used to assess the binding of PAPP-A to the cell surface of HEK 293 cells either transfected with empty expression vector or with the vector containing cDNA encoding rPAPP-A (see Example 4 for a description of vectors and transfections). […] Fifty μl of the cell suspension was incubated with primary antibody (final concentration 5 μg/ml purified PAPP-A specific mAb 234-2) on ice for 30 min. Cells were then washed three times with L15/FBS and incubated with fluorescein isothiocyanate-conjugated goat anti-mouse IgG (heavy and light chain, Zymed Laboratories, San Francisco, Calif.) for 30 min on ice. Cells were fixed in buffer with 1% formaldehyde before flow cytometry on a Becton Dickinson instrument. […] Similar results were obtained with other PAPP-A monoclonal antibodies (234-3, 234-4, 234-5, and 234-7).

In the case of “PAPP-A: pregnancy-associated plasma protein-A, the IGF-dependent IGFBP-4 protease”, the “Binding to the cell surface” value is reported as “binds to the surface of HEK 293 cells”.
